Reference: publication PMC10771415, “Mechanism of anion exchange and small-molecule inhibition of pendrin” (Nature Communications, 2024)

How the values were obtained:
[1] = biological target: pendrin (ssPendrin, SLC26A4) (Sus scrofa, UniProt A0A480E679, Q101L/T224A); assay: inhibition of […]-HCO3- uptake in proteoliposomes of purified mutant; format: biochemical
[2] = biological target: T1, pendrin (ssPendrin, SLC26A4) (Sus scrofa, UniProt A0A480E679); assay: cryo-EM structure at […] Å; inhibition of […]-HCO3- uptake in proteoliposomes of purified protein; format: biochemical
T1 construct: C-terminal TEV site and 8x His-tag
T1 sequence (A0A480E679 1-780): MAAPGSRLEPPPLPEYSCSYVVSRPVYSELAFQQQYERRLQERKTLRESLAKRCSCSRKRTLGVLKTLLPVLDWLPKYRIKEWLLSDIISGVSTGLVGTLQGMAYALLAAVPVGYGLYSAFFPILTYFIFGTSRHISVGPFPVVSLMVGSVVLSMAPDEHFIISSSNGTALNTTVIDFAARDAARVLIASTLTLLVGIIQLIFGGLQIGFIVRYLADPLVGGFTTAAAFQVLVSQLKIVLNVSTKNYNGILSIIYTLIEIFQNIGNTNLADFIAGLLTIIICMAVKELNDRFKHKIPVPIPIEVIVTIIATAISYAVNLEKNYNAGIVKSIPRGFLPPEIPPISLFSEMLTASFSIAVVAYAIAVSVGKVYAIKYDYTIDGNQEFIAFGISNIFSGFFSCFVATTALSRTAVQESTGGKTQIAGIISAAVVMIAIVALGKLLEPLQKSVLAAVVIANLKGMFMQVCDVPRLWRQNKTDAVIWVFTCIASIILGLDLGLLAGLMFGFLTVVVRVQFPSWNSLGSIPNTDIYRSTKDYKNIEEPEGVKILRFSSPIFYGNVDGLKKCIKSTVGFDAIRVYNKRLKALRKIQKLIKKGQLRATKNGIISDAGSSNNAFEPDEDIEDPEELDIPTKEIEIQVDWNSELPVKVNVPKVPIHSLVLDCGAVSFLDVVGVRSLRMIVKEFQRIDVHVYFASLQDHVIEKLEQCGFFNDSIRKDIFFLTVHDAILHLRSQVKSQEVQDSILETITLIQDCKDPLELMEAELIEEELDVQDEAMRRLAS

[3] = biological target: pendrin (ssPendrin, SLC26A4) (Sus scrofa, UniProt A0A480E679, T224V); assay: inhibition of […]-HCO3- uptake in proteoliposomes of purified mutant; format: biochemical
Chain of pendrin (ssPendrin, SLC26A4) (Sus scrofa, UniProt A0A480E679, T224V) (A0A480E679 entry or part of it T224V): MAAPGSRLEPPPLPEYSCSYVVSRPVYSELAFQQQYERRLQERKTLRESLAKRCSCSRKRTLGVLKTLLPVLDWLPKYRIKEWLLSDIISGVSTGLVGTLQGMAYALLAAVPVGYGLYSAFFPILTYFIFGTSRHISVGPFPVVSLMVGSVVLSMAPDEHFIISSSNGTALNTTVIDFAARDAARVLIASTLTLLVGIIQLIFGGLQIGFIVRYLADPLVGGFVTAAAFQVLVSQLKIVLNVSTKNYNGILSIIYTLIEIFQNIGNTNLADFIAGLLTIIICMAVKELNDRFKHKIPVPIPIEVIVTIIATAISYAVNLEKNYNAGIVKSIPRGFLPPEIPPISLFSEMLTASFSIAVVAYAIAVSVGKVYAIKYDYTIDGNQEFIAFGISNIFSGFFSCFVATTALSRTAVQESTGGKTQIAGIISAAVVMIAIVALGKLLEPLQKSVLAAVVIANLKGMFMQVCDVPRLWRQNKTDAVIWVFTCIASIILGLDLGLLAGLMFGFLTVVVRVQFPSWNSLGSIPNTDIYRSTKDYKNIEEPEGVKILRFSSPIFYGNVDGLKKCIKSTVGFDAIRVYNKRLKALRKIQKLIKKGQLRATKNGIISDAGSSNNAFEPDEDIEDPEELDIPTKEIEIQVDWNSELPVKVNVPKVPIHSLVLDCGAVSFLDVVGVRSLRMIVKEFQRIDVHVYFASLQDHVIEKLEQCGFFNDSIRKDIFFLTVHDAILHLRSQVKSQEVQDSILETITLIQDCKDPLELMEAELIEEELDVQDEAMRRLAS

[4] = biological target: pendrin (ssPendrin, SLC26A4) (Sus scrofa, UniProt A0A480E679, Q101L); assay: as above; format: biochemical
Chain of pendrin (ssPendrin, SLC26A4) (Sus scrofa, UniProt A0A480E679, Q101L) (A0A480E679 entry or part of it Q101L): as the sequence (A0A480E679 entry or part of it T224V) above, with Q101L, V224T counted along it

[5] = biological target: pendrin from Sus scrofa (ssPendrin) (Sus scrofa); assay: cryo-EM structure; purified ssPendrin in 20 mM HEPES pH 7.5, 2 mM BME, 0.02% GDN with 150 mM NaCl, NaI, NaHCO3 or Na gluconate, or 150 mM NaCl and 10 mM NFA; refined with C2 symmetry

Chain of pendrin (ssPendrin, SLC26A4) (Sus scrofa, UniProt A0A480E679, Q101L/T224A) (A0A480E679 entry or part of it Q101L/T224A): as the sequence (A0A480E679 entry or part of it T224V) above, with Q101L, V224A counted along it

With O=C(O)c1cccnc1Nc1cccc(C(F)(F)F)c1 [NFA, niflumic acid] as the compound, how does the IC50 [1] read?
Its IC50 is 16.3 µM.

What about the IC50 [2] of the same compound?
The IC50 was 15.5 ± 1.5 µM.

And the IC50 [3]?
Its IC50 is 9.5 µM.

What about the IC50 [4] of the same compound?
The IC50 was 31.2 µM.

How did the stoichiometry N [5] turn out when “pendrin from Sus scrofa (ssPendrin) (natural protein)” was run?
The stoichiometry N was 2.
